Experimental data: ChEMBL document CHEMBL1201862, “PubChem BioAssay data set” (2004)
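How tested: cells in 96-well plates exposed to compound for 48 hours at five concentrations. GI50 marks 50% less growth.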 Calls of active or inactive are those of the source. Rule as the data show it: active = GI50 up to about 1.1 µM and inactive = higher.

Columns and labels:
Assay in all cases: NCI-60 cell line screen, 48 h
NCI-H460 = system: NCI-H460
EKVX = system: EKVX
K562 = system: K562
SF-539 = system: SF-539
OVCAR-8 = system: OVCAR-8
786-0 = system: 786-0
LOX IMVI = system: LOX IMVI
IGROV-1 = system: IGROV-1
KM-20L2 = system: KM-20L2
CCRF-CEM = system: CCRF-CEM
SK-MEL-5 = system: SK-MEL-5
M19-MEL = system: M19-MEL
SNB-78 = system: SNB-78
SNB-19 = system: SNB-19
Malme-3M = system: Malme-3M
UACC-257 = system: UACC-257
HOP-62 = system: HOP-62
KM12 = system: KM12
HCT-15 = system: HCT-15
SNB-75 = system: SNB-75
SF-268 = system: SF-268
OVCAR-4 = system: OVCAR-4
U-251 = system: U-251
NCI-H226 = system: NCI-H226
MOLT-4 = system: MOLT-4
RXF 393 = system: RXF 393
HCC 2998 = system: HCC 2998
RXF 631 = system: RXF 631
DLD-1 = system: DLD-1
UO-31 = system: UO-31
SN12C = system: SN12C
LXFL 529 = system: LXFL 529
SK-OV-3 = system: SK-OV-3
SR = system: SR
HOP-92 = system: HOP-92
A498 = system: A498
SF-295 = system: SF-295
M14 = system: M14
COLO 205 = system: COLO 205
CAKI-1 = system: CAKI-1
DMS-114 = system: DMS-114
ACHN = system: ACHN
SK-MEL-28 = system: SK-MEL-28
SW-620 = system: SW-620
UACC-62 = system: UACC-62
HL-60 = system: HL-60
HCT-116 = system: HCT-116
TK-10 = system: TK-10
HT-29 = system: HT-29
NCI-H23 = system: NCI-H23
OVCAR-5 = system: OVCAR-5
NCI-H522 = system: NCI-H522
A549 = system: A549
OVCAR-3 = system: OVCAR-3
HOP-18 = system: HOP-18
DMS-273 = system: DMS-273
SK-MEL-2 = system: SK-MEL-2
RPMI-8226 = system: RPMI-8226

Structure (SMILES): CCC(C)C(N)C(=O)NC(CC(N)=O)C(=O)NC(CC(C)C)C(=O)NC(CCCCN)C(=O)NC(C)C(=O)NC(CC(C)C)C(=O)NC(C)C(=O)NC(C)C(=O)NC(CC(C)C)C(=O)NC(C)C(=O)NC(CCCCN)C(=O)NC(CCCCN)C(=O)NC(C(=O)NC(CC(C)C)C(N)=O)C(C)CC (configuration not stated)
- GI50 (NCI-H460): 9.82 µM (inactive)
- GI50 (EKVX): 8.05 µM (inactive)
- GI50 (K562): 14.7 µM (inactive)
- GI50 (SF-539): 6.08 µM (inactive)
- GI50 (OVCAR-8): 17.5 µM (inactive)
- GI50 (786-0): 6.56 µM (inactive)
- GI50 (LOX IMVI): 18.3 µM (inactive)
- GI50 (IGROV-1): 17.8 µM (inactive)
- GI50 (KM-20L2): 22.5 µM (inactive)
- GI50 (CCRF-CEM): 6.46 µM (inactive)
- GI50 (SK-MEL-5): 6.53 µM (inactive)
- GI50 (M19-MEL): 10.1 µM (inactive)
- GI50 (SNB-78): 11.3 µM (inactive)
- GI50 (SNB-19): 14.7 µM (inactive)
- GI50 (Malme-3M): 5.98 µM (inactive)
- GI50 (UACC-257): 14.2 µM (inactive)
- GI50 (HOP-62): 2.55 µM (inactive)
- GI50 (KM12): 14.5 µM (inactive)
- GI50 (HCT-15): 16.6 µM
- GI50 (SNB-75): 6.56 µM (inactive)
- GI50 (SF-268): 6.47 µM (inactive)
- GI50 (OVCAR-4): 15.3 µM (inactive)
- GI50 (U-251): 16.4 µM (inactive)
- GI50 (NCI-H226): 14.5 µM (inactive)
- GI50 (MOLT-4): 14.9 µM (inactive)
- GI50 (RXF 393): 8.61 µM (inactive)
- GI50 (HCC 2998): > 42.2 µM (inactive)
- GI50 (RXF 631): 7.82 µM (inactive)
- GI50 (DLD-1): 10.4 µM (inactive)
- GI50 (UO-31): 18.1 µM (inactive)
- GI50 (SN12C): 13.6 µM (inactive)
- GI50 (LXFL 529): 14.9 µM (inactive)
- GI50 (SK-OV-3): 18.7 µM (inactive)
- GI50 (SR): 19 µM (inactive)
- GI50 (HOP-92): 1.14 µM (inactive)
- GI50 (A498): 17.9 µM (inactive)
- GI50 (SF-295): 19.8 µM (inactive)
- GI50 (M14): 2.48 µM (inactive)
- GI50 (COLO 205): 16.1 µM (inactive)
- GI50 (CAKI-1): 8.3 µM (inactive)
- GI50 (DMS-114): 14.1 µM (inactive)
- GI50 (ACHN): 14 µM (inactive)
- GI50 (SK-MEL-28): 8.59 µM (inactive)
- GI50 (SW-620): 20.4 µM (inactive)
- GI50 (UACC-62): 6.64 µM (inactive)
- GI50 (HL-60): 2.74 µM (inactive)
- GI50 (HCT-116): 15.6 µM (inactive)
- GI50 (TK-10): 14.2 µM (inactive)
- GI50 (HT-29): 19.5 µM (inactive)
- GI50 (NCI-H23): 14.7 µM (inactive)
- GI50 (OVCAR-5): 14.6 µM (inactive)
- GI50 (NCI-H522): 16.7 µM (inactive)
- GI50 (A549): 9.93 µM (inactive)
- GI50 (OVCAR-3): 8 µM (inactive)
- GI50 (HOP-18): 7.01 µM (inactive)
- GI50 (DMS-273): 7.43 µM (inactive)
- GI50 (SK-MEL-2): 19.4 µM (inactive)

Structure (SMILES): CN(C)/C(N)=N\C#N
- GI50 (NCI-H460): > 100 µM (inactive)
- GI50 (EKVX): > 100 µM (inactive)
- GI50 (K562): > 100 µM (inactive)
- GI50 (SF-539): > 100 µM (inactive)
- GI50 (OVCAR-8): > 100 µM (inactive)
- GI50 (786-0): > 100 µM (inactive)
- GI50 (IGROV-1): > 100 µM (inactive)
- GI50 (KM-20L2): > 100 µM (inactive)
- GI50 (SK-MEL-5): > 100 µM (inactive)
- GI50 (M19-MEL): 83.6 µM (inactive)
- GI50 (SNB-78): > 100 µM (inactive)
- GI50 (SNB-19): > 100 µM (inactive)
- GI50 (Malme-3M): > 100 µM (inactive)
- GI50 (UACC-257): > 100 µM (inactive)
- GI50 (RPMI-8226): 64.7 µM (inactive)
- GI50 (HOP-62): > 100 µM (inactive)
- GI50 (KM12): > 100 µM (inactive)
- GI50 (HCT-15): 18.9 µM
- GI50 (SNB-75): > 100 µM (inactive)
- GI50 (SF-268): > 100 µM (inactive)
- GI50 (OVCAR-4): > 100 µM (inactive)
- GI50 (U-251): > 100 µM (inactive)
- GI50 (NCI-H226): > 100 µM (inactive)
- GI50 (MOLT-4): > 100 µM (inactive)
- GI50 (RXF 393): 17.5 µM (inactive)
- GI50 (HCC 2998): > 100 µM (inactive)
- GI50 (RXF 631): > 100 µM (inactive)
- GI50 (DLD-1): 48.9 µM (inactive)
- GI50 (UO-31): > 100 µM (inactive)
- GI50 (SN12C): > 100 µM (inactive)
- GI50 (LXFL 529): > 100 µM (inactive)
- GI50 (SK-OV-3): > 100 µM (inactive)
- GI50 (HOP-92): > 100 µM (inactive)
- GI50 (A498): > 100 µM (inactive)
- GI50 (SF-295): > 100 µM (inactive)
- GI50 (M14): > 100 µM (inactive)
- GI50 (COLO 205): 59.4 µM (inactive)
- GI50 (CAKI-1): > 100 µM (inactive)
- GI50 (DMS-114): 93.8 µM (inactive)
- GI50 (ACHN): > 100 µM (inactive)
- GI50 (SK-MEL-28): > 100 µM (inactive)
- GI50 (SW-620): 21 µM (inactive)
- GI50 (UACC-62): > 100 µM (inactive)
- GI50 (HL-60): > 100 µM (inactive)
- GI50 (HCT-116): > 100 µM (inactive)
- GI50 (TK-10): > 100 µM (inactive)
- GI50 (HT-29): > 100 µM (inactive)
- GI50 (NCI-H23): > 100 µM (inactive)
- GI50 (OVCAR-5): > 100 µM (inactive)
- GI50 (NCI-H522): > 100 µM (inactive)
- GI50 (A549): > 100 µM (inactive)
- GI50 (OVCAR-3): > 100 µM (inactive)
- GI50 (HOP-18): > 100 µM (inactive)
- GI50 (DMS-273): > 100 µM (inactive)
- GI50 (SK-MEL-2): > 100 µM (inactive)
